Entries after “also recorded” stand apart in the source; their conditions may differ.
Key:
Type in all cases: cell-based, maize
ATCC40520 microspores [1] = assay: Gene expression analysis of embryo-like structures from control and hemin-treated ATCC40520 cultures; settings: 1 μM hemin, 8 days in vitro culture, vs control
Description: Following microspore isolation, ATCC40520 microspores (see U.S. Pat. No. 5,602,310 incorporated herein by reference in its entirety) were cultured in a petri dish in a 9% sucrose induction medium as a control or a 9% sucrose induction medium supplemented with a 1 μM final concentration of hemin (Sigma-Aldrich, catalog # H9039) at 28° C. under dark conditions. After 8 days of in vitro tissue culture, four biological replicates of proliferating embryo-like structures were sampled from each of the control and the hemin-treated ATCC40520 tissue cultures for embryogenesis induction and processed for gene expression analysis using methods known in the art (data not shown).

ATCC40520 microspores [2] = assay: Microspore embryogenesis in ATCC40520 microspore culture with hemin, MCS/ELS phenotype scoring; settings: 1 μM hemin
Description: Following microspore isolation, ATCC40520 microspores (see U.S. Pat. No. 5,602,310 incorporated herein by reference in its entirety) were cultured in a petri dish in a 9% sucrose induction medium as a control or a 9% sucrose induction medium supplemented with a 1 μM final concentration of hemin (Sigma-Aldrich, catalog # H9039) at 28° C. under dark conditions.
(§1) Following microspore isolation, ATCC40520 microspores and EH, anelite inbred, that is known to be less responsive relative to the ATCC40520 genotype, were each individually cultured in a petri dish in a 9% sucrose induction medium as a control or a 9% sucrose induction medium supplemented with a 1 μM final concentration of hemin at 28° C. under dark conditions.
(§2) Microspore phenotypes were scored for each of ATCC40520 and EH after 21 days of treatment (+/− hemin). A multicellular structure (MCS) phenotype was scored when a unicellular-derived structure resulting from randomly oriented divisions within a surrounding, intact exine wall was observed. If the surrounding exine was ruptured and a release of cells was observed, then the response was scored as a proliferative embryo-like structure (ELS).

inbred EH microspores [3] = assay: Microspore embryogenesis in inbred EH microspore culture with hemin, MCS/ELS phenotype scoring; settings: 1 μM hemin
Description: as §1, §2

inbred EH microspores [4] = assay: Ex situ treatment of isolated microspores with purified ZmWUS2-hexa histidine-tag protein
Description: WUSCHEL protein expression and purification was performed using a heterologous expression system expressing a plasmid encoding a ZmWUS2-hexa histidine-tag (SEQ ID NO:1) sequence transformed into DH10Bac cells (Thermo Fisher Scientific catalog #10361012) to generate baculoviruses. Baculovirus-infected SF9 insect cells (Thermo Fisher Scientific catalog #12552014) were incubated for 72 hours at 27° C. The infected insect cells were harvested by centrifugation. Purification of the recombinant ZmWUS2-hexa histidine-tag protein (SEQ ID NO:2) was performed using commercially available protein purification methods Following microspore isolation from inbred EH, ZmWUS2-hexa histidine-tag protein treatments were performed for each culture by combining 505 μL of a 4% sucrose induction media, 37.5 μL of molecular grade bovine serum albumin (BSA; 20 mg/ml) (Sigma-Aldrich catalog # B8667) and 7.5 μL of protease inhibitor (Sigma-Aldrich catalog # P9599) and with 250 μL of the purified recombinant ZmWUS2-hexa histidine-tag protein. After gently mixing, the solution was filter sterilized within a sterile environment using a 0.2 μm filter (Pall Corporation catalog #4612). Optionally, an isolation medium was buffered with L-glutathione reduced (Sigma-Aldrich catalog #G4251). […]

[5] = tested on: microspores isolated from a F1 hybrid tassel of an EHxGR genetic cross; assay: Protein transfection of microspores with ZmWUS2-hexa histidine-tag protein with or without Pro-Ject reagent
Description: Transfection reagent preparation using the cationic lipid based Pro-Ject™ transfection reagent (Thermo Fisher Scientific catalog #89850) was performed by adding 250 μL of methanol to the tube containing the dried transfection reagent, vortexing for 30 seconds at top speed, and dispensing 10 μL of Pro-ject™ plus methanol to 1.5 mL Eppendorf tubes. The transfection reagent was evaporated from the tubes within a chemical fume hood for 4 hours drying time at room temperature and the tubes were stored the tubes at −20° C. until use. Upon use, 100 μL of isolation medium containing 50 ng of the purified ZmWUS2-hexa histidine-tag protein was added to each tube and 900 μL microspore culture medium was dispensed into each transfection tube to re-hydrate the transfection reagent and encapsulate the protein. The 1 mL volume of this solution was combined with a 1 mL volume of microspores isolated from a F1 hybrid tassel of an EHxGR genetic cross. The microspores were suspended in isolation medium and each 2 mL volume was dispensed into a well of a 24 well microtiter plate (Lab Safety Supply catalog #11L794). The isolation medium was further supplemented with bovine serum albumin, protease inhibitor and L-glutathione reduced, with or without the cationic lipid-based Pro-Ject™ transfection reagent, and with or with the ZmWUS2-hexa histidine-tag protein treatments (ZmWUS2-hexa histidine-tag protein buffer as a control for comparison to the ZmWUS2-hexa histidine-tag protein). Each plate was sealed with parafilm and incubated at 28° C. under dark conditions. […] After 18 days, all cells were collected and rinsed using 70 μm Fisherbrand™ cell strainer and evaluated for the activation of cellular reprogramming and the induction of microspore embryogenesis. Microspore viability was scored by counting plasmolyzed, collapsed cells (i.e. “non-viable”) and translucent, spherical cells corresponding to the original state (i.e. “viable”).

isolated microspores [6] = assay: Microspore electroporation with ZmWUS2-hexa histidine-tag protein; settings: in combination with electroporation, vs no protein and no electroporation
Description: A Neon® Transfection System (Thermo Fisher Scientific catalog #MPK5000) and Neon® kit (Thermo Fisher Scientific catalog #MPK10025) is used per the manufacturer's instructions. The ex situ ZmWUS2-hexa histidine-tag protein treatment is prepared by mixing 12.5 μL of ZmWUS2-hexa histidine-tag protein (SEQ ID NO:2; 10 μg total, 0.8 μg/μL stock) with 12.5 μL Lipofectamin 3000 followed by 30 minutes incubation at room temperature. Sucrose is added to the resuspension buffer (buffer R) to a 0.4 M final concentration and filter sterilized. Isolated microspores are resuspended in a 2% (V/V) dimethyl sulfoxide (DMSO)/9% suscrose induction medium solution and incubated for 15 minutes at room temperatures, the microspores are pelleted, and the supernatant is removed. The microspores are washed three times with phosphate buffered saline (PBS; Gibco™ 10010023), resuspended in Electrolytic Buffer E (Thermo Fisher Scientific catalog #MPK5000) and mixed with the ZmWUS2-hexa histidine-tag protein/Lipofectamine 3000 solution followed by room temperature incubation for 10 minutes and then incubation on ice for 10 minutes. DMSO-mediated electroporation was used to increase ZmWUS2-hexa histidine-tag protein uptake into isolated microspores through multiple pulse conditions. […]

isolated microspores [7] = assay: Ex situ treatment of isolated microspores with GAMMA ZEIN-ZmWUS2-hexa histidine-tag protein; settings: vs microspores cultured without the protein
Description: GAMMA ZEIN-ZmWUS2-hexa histidine-tag protein expression and purification is performed using a heterologous expression system expressing a plasmid encoding a GAMMA ZEIN-ZmWUS2-hexa histidine-tag (SEQ ID NO:46) sequence transformed into DH10Bac cells to generate baculoviruses. Baculovirus-infected SF9 insect cells are incubated for 72 hours at 27° C. The infected insect cells are harvested by centrifugation. Purification of the recombinant GAMMA ZEIN-ZmWUS2-hexa histidine-tag protein (SEQ ID NO:47) is performed as described in EXAMPLE 3.

[8] = 21 days, vs control EH microspores

Molecule: hemin
- expression of embryogenic transcripts (ATCC40520 microspores [1]): increased expression of embryogenic transcripts
- expression of pollen associated transcripts (ATCC40520 microspores [1]): decreased expression of pollen associated transcripts
- cellular proliferation and development of embryo-like structures (ELS) (ATCC40520 microspores [2]; 9% sucrose induction medium, 21 days, vs control): increased cellular proliferation and the development of embryo-like structures (ELS)
- quality of the embryo-like structures (proportion of spherical vs non-spherical embryoids) (ATCC40520 microspores [2]; 21 days): improved the quality of the embryo-like structures
- number of ELS in responsive cultures (ATCC40520 microspores [2]; after 21 days of treatment (+/- hemin)): approximately doubled
- cellular proliferation in responsive cultures (inbred EH microspores [3]; 21 days of culture, vs control): increased cellular proliferation
- percentage of microspores scored with the ELS phenotype (inbred EH microspores [3]; [8]): increased
- percentage of microspores scored with the MCS phenotype (inbred EH microspores [3]; [8]): increased

B1: ZmWUS2-hexa histidine-tag protein: Purified recombinant Zea mays WUSCHEL2 hexahistidine-tagged protein (SEQ ID NO:2) from baculovirus-infected SF9 insect cells (protein)
chain: MAANAGGGGAGGGSGSGSVAAPAVCRPSGSRWTPTPEQIRMLKELYYGCGIRSPSSEQIQRITAMLRQHGKIEGKNVFYWFQNHKARERQKRRLTSLDVNVPAAGAADATTSQLGVLSLSSPPPSGAAPPSPTLGFYAAGNGGGSAVLLDTSSDWGSSGAAMATETCFLQDYMGVTDTGSSSQWPRFSSSDTIMAAAAARAATTRAPETLPLFPTCGDDGGSGSSSYLPFWGAASTTAGATSSVAIQQQHQLQEQYSFYSNSNSTQLAGTGNQDVSATAAAAAALELSLSSWCSPYPAAGSMGHHHHHH
modifications: hexahistidine tag
- microspore responsiveness and embryogenesis induction (inbred EH microspores [4]; recalcitrant elite inbred, 4% sucrose induction media, vs culture without protein): improved microspore responsiveness and embryogenesis induction
- embryoid development (morphology) (inbred EH microspores [4]; wild type microspores treated with purified protein): revealed a suspensor with root hairs; also recorded: A microspore-derived embryo with a developed radicle and root hairs was observed
- improvement in cell viability ([5]; 72 hours post-isolation, 4% sucrose liquid induction medium, on average): 5.1 fold
- cell proliferation / activation of cellular reprogramming and induction of microspore embryogenesis ([5]; combined with cationic lipid-based Pro-Ject transfection reagent, 18 days): cell proliferation was seen
- cell viability after 18 days of culture ([5]; without transfection reagent, vs control without protein): fewer cells were viable in the control treatment
- microspore responsiveness and embryogenesis induction (isolated microspores [6]): improved microspore responsiveness and embryogenesis induction

B2: GAMMA ZEIN-ZmWUS2-hexa histidine-tag protein: Gamma-zein cell penetrating peptide WUSCHEL hexahistidine-tagged translational fusion protein (SEQ ID NO:47) (protein)
chain: VRLPPPVRLPPPLVRPPPLHHHHHHMAANAGGGGAGGGSGSGSVAAPAVCRPSGSRWTPTPEQIRMLKELYYGCGIRSPSSEQIQRITAMLRQHGKIEGKNVFYWFQNHKARERQKRRLTSLDVNVPAAGAADATTSQLGVLSLSSPPPSGAAPPSPTLGFYAAGNGGGSAVLLDTSSDWGSSGAAMATETCFLQDYMGVTDTGSSSQWPRFSSSDTIMAAAAARAATTRAPETLPLFPTCGDDGGSGSSSYLPFWGAASTTAGATSSVAIQQQHQLQEQYSFYSNSNSTQLAGTGNQDVSATAAAAAALELSLSSWCSPYPAAGSMGHHHHHH
modifications: WUS-HISTAG-GZCPP protein sequence
- microspore responsiveness and embryogenesis induction (isolated microspores [7]): improved microspore responsiveness and embryogenesis induction

Reference: US11447786B2, “Systems and methods for cellular reprogramming of a plant cell” (PIONEER HI-BRED INTERNATIONAL, INC., priority 2017, dated 2022)
